Source: ChEMBL document CHEMBL3400106, “TR-FRET binding assay targeting unactivated form of Bruton's tyrosine kinase” (Bioorg Med Chem Lett, 2015)
Calls of active or inactive are those of the source. The calls are words filed in the database; no cut-off is given here.

What was measured:
[1] = biological target: T1, Tyrosine-protein kinase BTK (Homo sapiens, UniProt Q06187); test: Binding affinity to biotinylated and unactivated BTK (unknown origin) at 0.001 to 0.1 uM incubated for 1 hr by TR-FRET assay
[2] = biological target: T1, Tyrosine-protein kinase BTK; test: Inhibition of biotinylated and activated BTK (unknown origin) using FITC-labeled Srctide peptide substrate and ATP
[3] = biological target: T1, Tyrosine-protein kinase BTK; test: Inhibition of biotinylated and unactivated BTK (unknown origin) using FITC-labeled Srctide peptide substrate and ATP
[4] = biological target: T1, Tyrosine-protein kinase BTK; test: Binding affinity to biotinylated and unactivated BTK (unknown origin) incubated for 1 hr by TR-FRET assay
[5] = biological target: T1, Tyrosine-protein kinase BTK; test: Binding affinity to biotinylated and activated BTK (unknown origin) at 0.001 to 0.1 uM incubated for 1 hr by TR-FRET assay
[6] = biological target: T1, Tyrosine-protein kinase BTK; test: Inhibition of biotinylated and activated BTK (unknown origin) up to 100 uM using FITC-labeled Srctide peptide substrate and ATP
[7] = biological target: T1, Tyrosine-protein kinase BTK; test: Inhibition of unactivated BTK (unknown origin) using 30 uM probe 5-(4-(4-(6-(3-(4-tert-butylbenzamido)-2-methylphenyl)-4-methyl-3-oxo-3,4-dihydropyrazin-2-ylamino)benzoyl)piperazine-1-carbothioamido)-2-(6-hydroxy-3-oxo-3H-xanthen-9-yl)benzoic acid
[8] = Chemical stability in solution; type: physicochemical

T1 sequence (Q06187 whole entry): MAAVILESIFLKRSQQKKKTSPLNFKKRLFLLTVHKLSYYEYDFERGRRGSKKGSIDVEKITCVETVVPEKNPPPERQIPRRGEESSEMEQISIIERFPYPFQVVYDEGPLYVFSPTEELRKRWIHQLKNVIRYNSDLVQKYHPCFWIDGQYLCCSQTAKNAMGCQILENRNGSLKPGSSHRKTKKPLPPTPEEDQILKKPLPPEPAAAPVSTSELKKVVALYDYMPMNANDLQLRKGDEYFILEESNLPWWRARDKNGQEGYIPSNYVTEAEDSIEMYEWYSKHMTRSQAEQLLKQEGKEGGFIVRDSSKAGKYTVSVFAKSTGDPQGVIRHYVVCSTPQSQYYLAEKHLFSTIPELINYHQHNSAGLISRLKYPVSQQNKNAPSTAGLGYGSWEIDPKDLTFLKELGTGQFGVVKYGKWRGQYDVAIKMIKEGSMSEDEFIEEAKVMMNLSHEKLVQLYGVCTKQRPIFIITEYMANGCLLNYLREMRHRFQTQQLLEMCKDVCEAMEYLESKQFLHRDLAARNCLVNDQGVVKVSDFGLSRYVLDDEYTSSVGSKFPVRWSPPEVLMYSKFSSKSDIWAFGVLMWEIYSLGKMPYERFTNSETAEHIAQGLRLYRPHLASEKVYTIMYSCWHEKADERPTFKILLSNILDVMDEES

| Compound | Activity [1] | IC50 [2] | IC50 [3] | Kd [4] | Activity [5] | inhibition [6] | inhibition [7] | Stability [8] |
| --- | --- | --- | --- | --- | --- | --- | --- | --- |
| Cc1c(NC(=O)c2ccc(C(C)(C)C)cc2)cccc1-c1cn(C)c(=O)c(Nc2ccc(C(=O)NCCNC(=S)Nc3ccc(-c4c5ccc(=O)cc-5oc5cc(O)ccc45)c(C(=O)O)c3)cc2)n1 | Active | 290 nM | 5.6 nM | 6.1 nM | inactive | – | – | Unstable |
| Cc1c(NC(=O)c2ccc(C(C)(C)C)cc2)cccc1-c1cn(C)c(=O)c(Nc2ccc(C(=O)N3CCN(C(=S)Nc4ccc(-c5c6ccc(=O)cc-6oc6cc(O)ccc56)c(C(=O)O)c4)CC3)cc2)n1 | Active | 69 nM | 0.61 nM | 2.5 nM | inactive | – | – | – |
| Cc1c(NC(=O)c2ccc(C(C)(C)C)cc2)cccc1-c1cn(C)c(=O)c(Nc2ccc(C(=O)NCCCCNC(=S)Nc3ccc(-c4c5ccc(=O)cc-5oc5cc(O)ccc45)c(C(=O)O)c3)cc2)n1 | Active | 189 nM | 4.3 nM | 5.5 nM | inactive | – | – | Unstable |

The remaining compounds from weak to strong by IC50 [3], led by results:

| Activity [1] | IC50 [2] | IC50 [3] | Kd [4] | Activity [5] | inhibition [6] | inhibition [7] | Stability [8] | Compound |
| --- | --- | --- | --- | --- | --- | --- | --- | --- |
| – | – | 4700 nM | – | – | inactive | > 10% | – | CC(=O)Nc1cccc(NC(=O)c2ccc(CN3CCN(C)CC3)cc2)c1 |
| Active | 305 nM | 7.8 nM | 8.8 nM | inactive | – | – | Unstable | Cc1c(NC(=O)c2ccc(C(C)(C)C)cc2)cccc1-c1cn(C)c(=O)c(Nc2ccc(C(=O)NCCOCCOCCNC(=S)Nc3ccc(-c4c5ccc(=O)cc-5oc5cc(O)ccc45)c(C(=O)O)c3)cc2)n1 |
| Active | 350 nM | 4.8 nM | 3.8 nM | inactive | – | – | – | Cc1c(NC(=O)c2ccc(C(C)(C)C)cc2)cccc1-c1cn(C)c(=O)c(Nc2ccc(C(=O)N3CCOC(CNC(=S)Nc4ccc(-c5c6ccc(=O)cc-6oc6cc(O)ccc56)c(C(=O)O)c4)C3)cc2)n1 (stereo unspecified) |
| Active | 208 nM | 3.2 nM | 6.2 nM | inactive | – | – | – | Cc1c(NC(=O)c2ccc(C(C)(C)C)cc2)cccc1-c1cn(C)c(=O)c(Nc2ccc(C(=O)NCCCNC(=S)Nc3ccc(-c4c5ccc(=O)cc-5oc5cc(O)ccc45)c(C(=O)O)c3)cc2)n1 |
